From ChEMBL document CHEMBL2073976, “Circumvention of multidrug resistance by a newly synthesized quinoline derivative, MS-073” (Cancer Res, 1991)

Target: ATP-dependent translocase ABCB1 (Homo sapiens, UniProt P08183)
Experiment: TP_TRANSPORTER: increase in VCR intracellular accumulation (VCR: 0.03 uM, MS-073: 3 uM) in K562/ADM cells
Format: functional, cell-based
Conditions: k562/adr

ATP-dependent translocase ABCB1, sequence (P08183 whole entry): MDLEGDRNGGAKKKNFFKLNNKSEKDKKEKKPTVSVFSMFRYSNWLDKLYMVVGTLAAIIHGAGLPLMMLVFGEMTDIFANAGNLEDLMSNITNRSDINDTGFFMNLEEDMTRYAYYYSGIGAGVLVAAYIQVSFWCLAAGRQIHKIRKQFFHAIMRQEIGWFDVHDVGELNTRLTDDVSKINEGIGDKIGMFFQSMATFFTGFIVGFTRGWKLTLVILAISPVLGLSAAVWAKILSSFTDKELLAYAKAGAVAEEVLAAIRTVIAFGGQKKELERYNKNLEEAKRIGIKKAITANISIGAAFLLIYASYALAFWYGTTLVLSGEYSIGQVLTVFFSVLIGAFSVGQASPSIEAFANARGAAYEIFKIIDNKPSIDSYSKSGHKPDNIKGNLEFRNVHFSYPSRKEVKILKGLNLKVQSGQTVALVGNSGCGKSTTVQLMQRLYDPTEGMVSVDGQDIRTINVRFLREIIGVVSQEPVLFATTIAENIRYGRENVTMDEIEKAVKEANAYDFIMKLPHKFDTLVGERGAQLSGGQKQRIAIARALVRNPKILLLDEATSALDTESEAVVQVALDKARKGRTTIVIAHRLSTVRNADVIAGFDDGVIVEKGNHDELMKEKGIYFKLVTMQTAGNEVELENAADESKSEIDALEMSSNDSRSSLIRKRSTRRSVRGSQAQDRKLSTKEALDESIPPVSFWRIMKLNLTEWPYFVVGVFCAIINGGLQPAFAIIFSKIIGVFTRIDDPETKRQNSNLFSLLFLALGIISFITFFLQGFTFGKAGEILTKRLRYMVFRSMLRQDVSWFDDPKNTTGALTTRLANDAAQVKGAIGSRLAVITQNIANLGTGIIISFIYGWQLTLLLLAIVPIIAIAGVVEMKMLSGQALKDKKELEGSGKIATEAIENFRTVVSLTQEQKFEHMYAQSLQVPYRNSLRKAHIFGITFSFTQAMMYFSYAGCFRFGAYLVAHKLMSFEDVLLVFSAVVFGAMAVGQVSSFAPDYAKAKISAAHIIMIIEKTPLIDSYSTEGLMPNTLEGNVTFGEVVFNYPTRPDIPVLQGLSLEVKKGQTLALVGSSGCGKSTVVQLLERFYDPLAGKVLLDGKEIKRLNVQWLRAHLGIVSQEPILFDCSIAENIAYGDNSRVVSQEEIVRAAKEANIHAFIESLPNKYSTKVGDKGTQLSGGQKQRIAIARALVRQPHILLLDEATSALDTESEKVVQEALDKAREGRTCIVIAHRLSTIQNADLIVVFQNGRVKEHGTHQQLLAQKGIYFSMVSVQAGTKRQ

Compound: OC(COc1cccc2ncccc12)CN1CCN(C2c3ccccc3CCc3ccccc32)CC1 (stereo unspecified)
- Activity: inhibitor [+]
